Assay results taken from patent publication US7541367B2, “3-benzoimidazolyl-pyrazolopyridines useful in treating kinase disorders” (Janssen Pharmaceutica, N.V., priority 2005, dated 2009).
Several values for one entry are separate records, joined by “and”; a condition that tells them apart may be missing. Identical values can stand only once.

Key:
A375 malignant melanoma = assay: Cell Proliferation Inhibition Assay (14C-thymidine incorporation), A375; type: cell-based; details: Homo sapiens, A-375, A375 cells;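 further: proliferation measured by radiolabelled thymidine uptake into new DNA, counted in scintillating 96-well plates, compound-treated wells compared with DMSO-only control wells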
c-Src kinase = molecular target: T1, c-Src kinase (Homo sapiens, UniProt P12931); assay: c-Src Kinase Assay; type: biochemical; details: 5 μM ATP
T1 construct: purchased Upstate Biotechnology, Lake Placid, N.Y
T1 sequence (P12931 whole entry): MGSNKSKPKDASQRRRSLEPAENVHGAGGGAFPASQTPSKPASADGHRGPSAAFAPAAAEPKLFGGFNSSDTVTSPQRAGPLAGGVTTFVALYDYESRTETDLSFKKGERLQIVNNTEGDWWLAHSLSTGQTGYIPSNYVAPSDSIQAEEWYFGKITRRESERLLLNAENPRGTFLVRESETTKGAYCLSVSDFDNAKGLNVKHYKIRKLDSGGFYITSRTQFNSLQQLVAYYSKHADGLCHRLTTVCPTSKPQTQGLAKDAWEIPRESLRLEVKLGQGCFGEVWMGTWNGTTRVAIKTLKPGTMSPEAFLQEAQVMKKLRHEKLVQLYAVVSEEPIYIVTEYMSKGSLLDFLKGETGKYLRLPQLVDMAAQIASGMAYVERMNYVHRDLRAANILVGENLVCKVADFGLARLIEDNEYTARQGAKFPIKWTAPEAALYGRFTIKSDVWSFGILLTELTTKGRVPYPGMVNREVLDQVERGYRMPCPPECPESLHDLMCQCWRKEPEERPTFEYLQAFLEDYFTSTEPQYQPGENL
Experimental: A mixture of a 10× kinase buffer (80 mM MOPS at pH 7.0, 2 mM EDTA and 100 mM Magnesium Chloride), ATP (5 μM final from a 10 mM stock), a Cdc2 peptide […] (100 μM final from a 2.5 mM stock), γ-^33P ATP (10 μCi/μL stock) and water (for a total of 20 μL/well) was added to each well of a Streptavidin Flashplate.
Test compound in 100% DMSO (0.5 μL) was added to the appropriate wells. Diluted c-Src kinase (human) (Accession Number SWISS-PROT P12931) (Upstate Biotechnology, Lake Placid, N.Y.) (diluted in a buffer consisting of 20 mM MOPS at pH 7.0, 1 mM EDTA, β-mercaptoethanol (0.1%), Brij-35 (0.01%), glycerol (5%), and 1 mg/mL bovine serum albumin) (2.5 μL) was added to the wells to initiate the reactions. The reaction plates were incubated at 30° C. for 40 min. The reaction was terminated by the addition of a 3% phosphoric acid solution (5 μL). The reaction product (10 μL) was spotted onto a P30 filtermat and washed for 5 minutes in phosphoric acid (75 mM). The wash sequence was repeated two more times, followed with one final wash in methanol. The plates were then dried, sealed and read on the TopCount scintillation counter after adding 30 μL scintillation fluid.
(§1) A maximum and minimum signal for the assay was determined on each plate. The percent inhibition of a test compound was calculated according to the formula: […]
For a series of test concentrations, the IC50 was derived by graphing percent inhibition against the log of the concentrations tested for a given compound with results shown in Table 2
(§2) For compounds with multiple values, each value represents a separate assay result.

Lyn kinase = molecular target: T2, Lyn kinase (Homo sapiens, UniProt P07948); assay: Lyn Kinase Assay; type: biochemical; details: 5 μM ATP
T2 construct: purchased Upstate Biotechnology, Lake Placid, N.Y
T2 sequence (P07948 whole entry): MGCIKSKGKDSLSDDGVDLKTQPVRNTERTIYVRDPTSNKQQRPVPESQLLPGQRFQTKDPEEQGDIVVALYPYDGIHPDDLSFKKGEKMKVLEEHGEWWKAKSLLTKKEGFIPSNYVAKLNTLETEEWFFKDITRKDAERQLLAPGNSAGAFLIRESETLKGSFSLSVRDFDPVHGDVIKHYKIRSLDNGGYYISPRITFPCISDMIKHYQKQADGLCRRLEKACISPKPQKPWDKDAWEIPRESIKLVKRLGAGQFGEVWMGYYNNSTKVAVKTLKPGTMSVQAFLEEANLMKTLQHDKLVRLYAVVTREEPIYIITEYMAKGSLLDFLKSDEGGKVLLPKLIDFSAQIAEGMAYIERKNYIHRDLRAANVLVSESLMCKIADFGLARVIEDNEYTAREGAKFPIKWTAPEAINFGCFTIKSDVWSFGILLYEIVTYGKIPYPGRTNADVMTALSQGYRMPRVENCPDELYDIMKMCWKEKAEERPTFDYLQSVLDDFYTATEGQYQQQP
Experimental: Test compound in 100% DMSO (0.5 μL) was added to the appropriate wells. Diluted Lyn kinase (human) (Accession Number EMBL M16038) (Upstate Biotechnology, Lake Placid, N.Y.) (diluted in a buffer consisting of 50 mM Tris at pH 7.5, 0.1 mM EGTA, Sodium Vanadate (0.1 mM), β-mercaptoethanol (0.1%) and 1 mg/mL bovine serum albumin) (2.5 μL) was added to the wells to initiate the reactions.
The reaction plates were incubated at 30° C. for 40 min. The reaction was terminated by the addition of a 3% phosphoric acid solution (5 μL). The reaction product (10 μL) was spotted onto a P30 filtermat and washed for 5 minutes in phosphoric acid (75 mM). The wash sequence was repeated two more times, followed with one final wash in methanol. The plates were then dried, sealed and read on the TopCount scintillation counter after adding 30 μL scintillation fluid.
as §1
For a series of test concentrations, the IC50 was derived by graphing percent inhibition against the log of the concentrations tested for a given compound with results shown in Table 3
as §2

CDK1 = molecular target: T3, CDK1 (Homo sapiens, UniProt P06493); assay: CDK-1 kinase screening assay (33P-ATP FlashPlate); type: biochemical; details: human CDK1 with cyclin B; 10 μM ATP; 1 hr at 30° C
T3 construct: purchased New England Biolabs, Beverly, Mass; 6020; host or cells: insect cells
T3 sequence (P06493 whole entry): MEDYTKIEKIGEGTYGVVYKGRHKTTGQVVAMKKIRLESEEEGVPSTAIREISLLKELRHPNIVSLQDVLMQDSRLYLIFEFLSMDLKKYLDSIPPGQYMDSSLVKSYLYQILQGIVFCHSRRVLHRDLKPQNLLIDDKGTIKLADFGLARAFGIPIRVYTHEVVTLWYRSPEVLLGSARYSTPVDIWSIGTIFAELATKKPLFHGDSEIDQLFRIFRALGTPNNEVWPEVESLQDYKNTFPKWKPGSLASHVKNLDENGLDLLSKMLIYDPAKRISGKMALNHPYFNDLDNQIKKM
T3 sequence (P14635 whole entry partner): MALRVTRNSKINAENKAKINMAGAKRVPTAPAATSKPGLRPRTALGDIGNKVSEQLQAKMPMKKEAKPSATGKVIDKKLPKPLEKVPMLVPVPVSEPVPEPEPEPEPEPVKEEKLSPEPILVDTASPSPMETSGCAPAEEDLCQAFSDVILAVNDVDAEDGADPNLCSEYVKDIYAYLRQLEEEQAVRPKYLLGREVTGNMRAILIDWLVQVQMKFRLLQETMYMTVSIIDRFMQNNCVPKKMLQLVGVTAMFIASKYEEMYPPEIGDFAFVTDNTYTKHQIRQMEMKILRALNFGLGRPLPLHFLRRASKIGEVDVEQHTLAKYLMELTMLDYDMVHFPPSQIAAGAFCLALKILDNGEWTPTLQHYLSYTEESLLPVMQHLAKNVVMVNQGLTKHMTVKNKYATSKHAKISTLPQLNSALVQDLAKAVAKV

HER2 = molecular target: T4, HER2 (Homo sapiens, UniProt P04626); assay: HER2 kinase screening assay (33P-ATP FlashPlate); type: biochemical; details: GST-HIS6 HER-2 aa 679 to 1255; 10 μM ATP; 1 hr at 30° C;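 further: Biotin-poly(GT) 4:1 peptide captured on streptavidin FlashPlate, 33P transfer from γ-ATP read by scintillation counting, lower incorporation means inhibition, 1% DMSO final, 100 µL reaction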
T4 construct: GST (Glutathione-S-Transferase) (N); HIS6 (N); thrombin cleavage site (N); purchased Proqinase, Freiburg, Germany
T4 sequence (P04626 679-1255): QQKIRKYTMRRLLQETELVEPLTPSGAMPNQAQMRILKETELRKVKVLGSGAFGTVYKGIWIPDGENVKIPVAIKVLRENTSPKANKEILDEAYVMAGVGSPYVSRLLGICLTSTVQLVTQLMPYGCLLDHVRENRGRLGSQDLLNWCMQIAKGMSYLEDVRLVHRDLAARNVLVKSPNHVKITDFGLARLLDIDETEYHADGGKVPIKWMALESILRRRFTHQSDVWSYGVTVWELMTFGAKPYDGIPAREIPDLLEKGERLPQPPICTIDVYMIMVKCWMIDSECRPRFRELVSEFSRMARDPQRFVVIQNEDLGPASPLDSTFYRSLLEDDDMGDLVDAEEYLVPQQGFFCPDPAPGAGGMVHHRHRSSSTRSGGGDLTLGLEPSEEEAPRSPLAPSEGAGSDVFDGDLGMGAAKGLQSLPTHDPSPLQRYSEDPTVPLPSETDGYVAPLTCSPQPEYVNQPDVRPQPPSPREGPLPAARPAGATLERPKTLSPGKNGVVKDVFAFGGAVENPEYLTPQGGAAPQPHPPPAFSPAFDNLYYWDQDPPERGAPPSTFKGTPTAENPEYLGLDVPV

HCT-116 colon carcinoma = assay: Cell Proliferation Inhibition Assay (14C-thymidine incorporation), HCT-116; type: cell-based;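 further: proliferation measured as methyl 14C-thymidine uptake into new DNA, counted in 96-well scintillating microplates, compared with DMSO-only control wells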
[1] = tested on: HeLa cervical adenocarcinoma; assay: Cell Proliferation Inhibition Assay (14C-thymidine incorporation), HeLa; type: cell-based; details: Homo sapiens, HeLa cells;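 further: test compound in DMSO added to cells seeded in scintillating 96-well plates, DMSO-only wells as control, uptake of methyl 14C-thymidine into new DNA counted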
RET = molecular target: T5, RET (Homo sapiens, UniProt P07949); assay: RET kinase screening assay (33P-ATP FlashPlate); type: biochemical; details: human RET kinase domain; 10 μM ATP; 1 hr at 30° C;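 further: biotinylated peptide substrate captured on streptavidin FlashPlate, 33P phosphate transfer read by scintillation counting, 1% DMSO, lower incorporation means inhibition, percent relative to per-plate maximum and minimum signals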
T5 construct: polyhistidine (N)
T5 sequence (P07949 658-1114 limits assumed): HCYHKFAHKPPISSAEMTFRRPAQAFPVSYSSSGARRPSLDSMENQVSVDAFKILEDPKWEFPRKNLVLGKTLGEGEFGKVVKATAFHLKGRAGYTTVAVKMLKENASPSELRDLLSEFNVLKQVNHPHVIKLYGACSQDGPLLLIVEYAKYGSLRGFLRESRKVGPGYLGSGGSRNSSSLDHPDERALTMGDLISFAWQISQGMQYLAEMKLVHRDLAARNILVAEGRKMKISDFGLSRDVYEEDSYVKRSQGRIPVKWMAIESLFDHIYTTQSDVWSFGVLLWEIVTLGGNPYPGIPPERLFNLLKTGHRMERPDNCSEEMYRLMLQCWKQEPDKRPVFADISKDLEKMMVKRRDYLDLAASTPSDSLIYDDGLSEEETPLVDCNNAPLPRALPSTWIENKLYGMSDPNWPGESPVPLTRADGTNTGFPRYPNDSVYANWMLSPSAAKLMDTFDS

VEGF-R2 = molecular target: T6, VEGF-R2 (Rattus norvegicus, UniProt O08775); assay: VEGF-R2 kinase screening assay (33P-ATP FlashPlate); type: biochemical; details: rat VEGF-R2 kinase domain; 10 μM ATP; 1 hr at 30° C;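 further: Read-out is ³³P incorporation from ³³P-γ-ATP into biotinylated peptide substrate captured on streptavidin FlashPlate, counted by scintillation, 1% DMSO final, inhibition scaled between per-plate maximum and minimum signals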
T6 construct: polyhistidine (N)
T6 sequence (O08775 786-1343): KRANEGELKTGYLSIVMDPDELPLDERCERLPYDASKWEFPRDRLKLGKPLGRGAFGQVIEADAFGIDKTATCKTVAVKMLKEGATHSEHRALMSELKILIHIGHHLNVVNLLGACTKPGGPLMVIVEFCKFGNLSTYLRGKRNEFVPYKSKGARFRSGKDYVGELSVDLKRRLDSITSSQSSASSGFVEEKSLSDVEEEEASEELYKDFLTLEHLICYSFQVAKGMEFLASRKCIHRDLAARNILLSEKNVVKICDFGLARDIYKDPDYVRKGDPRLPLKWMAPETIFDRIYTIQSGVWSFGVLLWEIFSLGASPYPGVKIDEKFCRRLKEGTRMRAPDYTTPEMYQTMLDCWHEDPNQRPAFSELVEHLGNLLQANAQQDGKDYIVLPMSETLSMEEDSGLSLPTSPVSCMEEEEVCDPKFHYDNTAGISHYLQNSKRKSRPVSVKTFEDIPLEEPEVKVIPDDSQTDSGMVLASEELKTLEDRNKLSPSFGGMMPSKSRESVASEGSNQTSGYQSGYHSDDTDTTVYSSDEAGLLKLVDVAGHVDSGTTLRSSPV

Aurora-A = molecular target: T7, Aurora-A (Mus musculus, UniProt P97477); assay: Aurora-A kinase screening assay (33P-ATP FlashPlate); type: biochemical; details: 10 μM ATP, 1 hr at 30° C;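 further: His-tagged mouse Aurora-A phosphorylating a biotinylated peptide captured on streptavidin plates, read as 33P uptake by scintillation counting, 1% DMSO, inhibition scaled between per-plate maximum and minimum signals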
T7 construct: polyhistidine (N)
T7 sequence (P97477 1-395): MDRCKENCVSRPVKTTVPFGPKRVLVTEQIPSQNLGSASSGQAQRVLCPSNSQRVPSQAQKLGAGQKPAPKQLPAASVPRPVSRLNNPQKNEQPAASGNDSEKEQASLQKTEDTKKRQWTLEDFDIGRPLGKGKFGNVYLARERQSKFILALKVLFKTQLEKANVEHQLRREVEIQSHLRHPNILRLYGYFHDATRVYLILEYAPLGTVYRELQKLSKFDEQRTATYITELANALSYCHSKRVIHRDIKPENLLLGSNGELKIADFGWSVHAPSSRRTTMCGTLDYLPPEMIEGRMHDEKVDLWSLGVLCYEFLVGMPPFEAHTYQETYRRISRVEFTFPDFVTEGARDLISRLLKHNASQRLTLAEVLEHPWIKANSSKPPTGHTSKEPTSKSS

[2] = Homo sapiens, HCT-116, HCT-116 cells

Compound | IC50 (A375 malignant melanoma) [nM] | IC50 (c-Src kinase) [nM] | IC50 (Lyn kinase) [nM] | IC50 (CDK1) | IC50 (HER2) [nM] | IC50 (RET) [nM] | IC50 (VEGF-R2) | IC50 (Aurora-A) | IC50 (HCT-116 colon carcinoma; [2]) [nM] | IC50 ([1]; HeLa) [nM] | IC50 (HCT-116 colon carcinoma; HCT-116 cells) [nM] | IC50 (HCT-116 colon carcinoma; Homo sapiens, HCT-116 cells) [nM] | IC50 [1] [nM]
CN1CCN(c2ccc3[nH]c(-c4n[nH]c5ncc(-c6cncc7ccccc67)cc45)nc3c2)CC1 [Cpd 31, 4-{3-[5-(4-methyl-piperazin-1-yl)-1H-benzoimidazol-2-yl]-1H-pyrazolo[3,4-b]pyridin-5-yl}-isoquinoline] | 165 | 4.21 | 3.87 | 13.6 nM | 6510 | – | – | – | – | – | – | 355 | 455
O=C(NC1CC1)c1cccc2[nH]c(-c3n[nH]c4ncc(-c5cncc6ccccc56)cc34)nc12 [Cpd 47, 2-(5-isoquinolin-4-yl-1H-pyrazolo[3,4-b]pyridin-3-yl)-1H-benzoimidazole-4-carboxylic acid cyclopropylamide] | 12.9 | 0.635 | 2.28 | 1.59 nM | ~10000 | – | 149 nM | 57.2 nM | 31.3 | 12.2 | – | – | –
c1ccc2c(-c3cnc4[nH]nc(-c5nc6cc(N7CCOCC7)ccc6[nH]5)c4c3)cncc2c1 [Cpd 51, 4-[3-(5-morpholin-4-yl-1H-benzoimidazol-2-yl)-1H-pyrazolo[3,4-b]pyridin-5-yl]-isoquinoline] | 297 | 2.82 | 5 | 8.55 nM | > 100000 | – | 1080 nM | 41.5 nM | 376 | 401 | – | – | –
CNCc1cncc(-c2cnc3[nH]nc(-c4nc5cc(N6CCN(C)CC6)ccc5[nH]4)c3c2)c1 [Cpd 81, methyl-(5-{3-[5-(4-methyl-piperazin-1-yl)-1H-benzoimidazol-2-yl]-1H-pyrazolo[3,4-b]pyridin-5-yl}-pyridin-3-ylmethyl)-amine] | 768 | 225 | 170 | 3.04 nM | 715 | – | 35.9 nM | 173 nM | – | – | – | 600 | 444
CNCc1cncc(-c2cnc3[nH]nc(-c4nc5ccc(OC)cc5[nH]4)c3c2)c1 [Cpd 97, {5-[3-(6-methoxy-1H-benzoimidazol-2-yl)-1H-pyrazolo[3,4-b]pyridin-5-yl]-pyridin-3-ylmethyl}-methyl-amine] | 164 | 16.4 | 4.29 | 0.9 nM | 1450 | – | – | – | – | – | – | 61.5 | 61.4

More lines, main results first:

IC50 (A375 malignant melanoma) [nM] | IC50 (c-Src kinase) [nM] | IC50 (Lyn kinase) [nM] | IC50 (CDK1) | IC50 (HER2) [nM] | IC50 (RET) [nM] | IC50 (VEGF-R2) | IC50 (Aurora-A) | IC50 (HCT-116 colon carcinoma; [2]) [nM] | IC50 ([1]; HeLa) [nM] | IC50 (HCT-116 colon carcinoma; HCT-116 cells) [nM] | Compound | IC50 (HCT-116 colon carcinoma; Homo sapiens, HCT-116 cells) [nM] | IC50 [1] [nM]
256 | 1170 | 1140 | 123 nM | > 100000 | > 100000 | > 100000 nM | ~100000 nM | 203 | 1180 | – | COCc1cccc2[nH]c(-c3nn(C)c4ncc(-c5cncc6ccccc56)cc34)nc12 [Cpd 33, 4-[3-(4-methoxymethyl-1H-benzoimidazol-2-yl)-1-methyl-1H-pyrazolo[3,4-b]pyridin-5-yl]-isoquinoline] | – | –
166 | 836 | 132 | 29.1 nM | > 10000 | 2230 | 683 nM | 6580 nM | 131 | 180 | – | COCc1cccc2[nH]c(-c3n[nH]c4ncc(-c5cncc(CNC(C)C)c5)cc34)nc12 [Cpd 43, isopropyl-{5-[3-(4-methoxymethyl-1H-benzoimidazol-2-yl)-1H-pyrazolo[3,4-b]pyridin-5-yl]-pyridin-3-ylmethyl}-amine] | – | –
357 | 288 | 379 | 88.9 nM | > 100000 | ~10000 | 341 nM | > 1000 nM | 128 | 771 | – | COCc1cccc2[nH]c(-c3n[nH]c4ncc(-c5cncc(CO)c5)cc34)nc12 [Cpd 44, {5-[3-(4-methoxymethyl-1H-benzoimidazol-2-yl)-1H-pyrazolo[3,4-b]pyridin-5-yl]-pyridin-3-yl}-methanol] | – | –
– | 143 | 578 | 177 nM and 343 nM | > 100000 | – | 1880 nM and 1570 nM | 3260 nM and 4640 nM | 33.6 | – | 63.5 | COCc1cccc2[nH]c(-c3n[nH]c4ncc(-c5cncc(CN6CCOCC6)c5)cc34)nc12 [Cpd 54, 3-(4-methoxymethyl-1H-benzoimidazol-2-yl)-5-(5-morpholin-4-ylmethyl-pyridin-3-yl)-1H-pyrazolo[3,4-b]pyridine] | – | –
330 | 143 | 578 | 124 nM | > 100000 | – | 1600 nM | 3750 nM | 186 | 1230 | – | COCc1cccc2[nH]c(-c3n[nH]c4ncc(-c5cncc(CN(C)C)c5)cc34)nc12 [Cpd 55, {5-[3-(4-methoxymethyl-1H-benzoimidazol-2-yl)-1H-pyrazolo[3,4-b]pyridin-5-yl]-pyridin-3-ylmethyl}-dimethyl-amine] | – | –
1060 | 6.63 | 2.43 | 7.67 nM | 1490 | – | 73.4 nM | 263 nM | 1500 | 1450 | – | CC(C)NCc1cncc(-c2cnc3[nH]nc(-c4nc5cc(N6CCN(C)CC6)ccc5[nH]4)c3c2)c1 [Cpd 83, isopropyl-(5-{3-[5-(4-methyl-piperazin-1-yl)-1H-benzoimidazol-2-yl]-1H-pyrazolo[3,4-b]pyridin-5-yl}-pyridin-3-ylmethyl)-amine] | – | –
371 | 56.7 | 69.4 | 2.74 nM | – | – | 316 nM | 279 nM | 299 | 418 | – | COc1ccc2nc(-c3n[nH]c4ncc(-c5cccnc5)cc34)[nH]c2c1 [Cpd 90, 3-(6-methoxy-1H-benzoimidazol-2-yl)-5-pyridin-3-yl-1H-pyrazolo[3,4-b]pyridine] | – | –
